Results on eleven compounds are retold here after ChEMBL document CHEMBL1201862, “PubChem BioAssay data set” (2004).

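Following 48 hours of exposure in 96-well plates, responses at five concentrations were used to interpolate endpoints linearly. Here, GI50 denotes the concentration required for 50% inhibition of growth.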 Activity calls are given as the source filed them. Cut-off read from the data, not from the text of the source: active = GI50 up to about 1.1 µM and inactive = higher. Bounds are passed on as bounds.

Among the test systems are 786-0; ACHN; COLO 205; HCT-15; K562; M14; MDA-MB-231; MDA-MB-435; MDA-N; MOLT-4; OVCAR-3; PC-3; SF-295; SK-MEL-28; SK-MEL-5; SK-OV-3; SNB-19; TK-10; UACC-257; CCRF-CEM.
Common to all, as to assay: DTP human tumour cell line panel, 48 h

Broadly, the GI50 is the concentration giving 50% growth inhibition.

Turning to `CC(=O)OC1CCC2(C)C(=CC(C3C=C4CC(OC(C)=O)CCC4(C)C4=C3C3CC5OC6(CCC(C)CO6)C(C)C5C3(C)CC4)C3=C2CCC2(C)C3CC3OC4(CCC(C)CO4)C(C)C32)C1` (stereo not drawn), the GI50 with 786-0 is 16.1 µM (inactive); in the assay with ACHN it was 15.8 µM (inactive); in the assay on COLO 205, 17.6 µM (inactive); in the assay with HCT-15, 14.3 µM; with K562, 4.43 µM (inactive); in the assay on M14 it was 14 µM (inactive). Further, the GI50 in the assay on MDA-MB-231 was 16.3 µM (inactive); with MDA-MB-435, 14.1 µM (inactive); with MDA-N, 17.2 µM (inactive); in the assay on MOLT-4, 2.07 µM (inactive); in the assay with OVCAR-3 it was 15.1 µM (inactive); with PC-3, 12.9 µM (inactive). Also, the GI50 in the assay with SF-295 is 13.2 µM (inactive); in the assay on SK-MEL-28 it was 17.7 µM (inactive); in the assay with SK-MEL-5 it was 13 µM (inactive); in the assay with SK-OV-3, 16.3 µM (inactive); in the assay with SNB-19, 16.7 µM (inactive); in the assay on TK-10, 14.5 µM (inactive). For the same compound, the GI50 with UACC-257 was 10.2 µM (inactive).

Turning to `CNC(=O)C(NC(=O)[C@H](CC(C)C)NC(=O)[C@@H](S)CCN1C(=O)N(C)C(C)(C)C1=O)C(C)(C)C` (stereo partly drawn), the GI50 in the assay with 786-0 is > 100 µM (inactive); in the assay on ACHN it was > 100 µM (inactive); in the assay on HCT-15 it was greater than 100 µM; in the assay with K562, 79.6 µM (inactive); with M14, > 100 µM (inactive); in the assay on MDA-MB-435, > 100 µM (inactive). For the same compound, the GI50 in the assay on MDA-N, in the assay on MOLT-4, in the assay with PC-3, in the assay on SF-295, in the assay with SK-MEL-28 and in the assay on SK-MEL-5 was > 100 µM (inactive) in each case. Further, the GI50 with SK-OV-3, in the assay on SNB-19, with TK-10 and with UACC-257 was > 100 µM (inactive) each time.

In the case of `O=c1[nH]c2ccc(CC(=S)N3CCOCC3)cc2o1`, the GI50 with 786-0 is > 100 µM (inactive); in the assay on ACHN it was > 100 µM (inactive); with CCRF-CEM, 89.9 µM (inactive); in the assay on COLO 205 it was > 100 µM (inactive); in the assay on HCT-15, greater than 100 µM; with M14, > 100 µM (inactive). The GI50 with MDA-MB-231, with MDA-MB-435, in the assay on MOLT-4, with OVCAR-3, in the assay on PC-3 and with SF-295 was > 100 µM (inactive) in each case. Further, the GI50 in the assay on SK-MEL-28, in the assay on SK-OV-3, in the assay on TK-10 and with UACC-257 was > 100 µM (inactive) throughout.

Turning to `CC(C)(O)/C=C\P(=O)(O)O`, the GI50 with 786-0 is > 100 µM (inactive); in the assay with ACHN it was > 100 µM (inactive); in the assay on COLO 205 it was > 100 µM (inactive); in the assay on HCT-15, greater than 100 µM; in the assay with K562, > 100 µM (inactive); with M14 it was > 100 µM (inactive). In addition, the GI50 in the assay on MDA-MB-435, with MDA-N, in the assay on OVCAR-3, in the assay with PC-3, in the assay with SF-295 and in the assay on SK-MEL-28 was > 100 µM (inactive) in each case. For the same compound, the GI50 with SK-MEL-5, in the assay on SK-OV-3, with SNB-19, with TK-10 and with UACC-257 was > 100 µM (inactive) in each case.

Turning to `O=C(Cc1ccccc1)NNc1nc(NNC(=O)c2ccncc2)nc(Nc2ccc(Cl)cc2)n1`, the GI50 with 786-0 is > 10 µM (inactive); in the assay on CCRF-CEM, > 10 µM (inactive); in the assay with COLO 205, > 10 µM (inactive); in the assay with HCT-15 it was greater than 10 µM; in the assay with K562, > 10 µM (inactive); in the assay with M14, > 10 µM (inactive). Moreover, the GI50 in the assay with MDA-MB-231, with MDA-N, in the assay with MOLT-4, in the assay on SK-MEL-28, in the assay on SK-MEL-5 and with SK-OV-3 was > 10 µM (inactive) in each case. In addition, the GI50 in the assay on TK-10 and in the assay on UACC-257 was > 10 µM (inactive) each time.

As to `C=C1C(=O)O[C@@H]2/C=C(/C)[C@@H](OC(C)=O)C/C=C(\C)C(O)[C@@H](OC(=O)/C(C)=C\C)C12` (stereo partly drawn), the GI50 in the assay on 786-0 was 15.1 µM (inactive); in the assay on ACHN, 18.7 µM (inactive); with CCRF-CEM, 9.53 µM (inactive); in the assay with COLO 205, 18.1 µM (inactive); in the assay on HCT-15 it was 16.5 µM; in the assay on K562, 22.6 µM (inactive). Also, the GI50 in the assay on M14 was 33.1 µM (inactive); in the assay with MDA-MB-231 it was 19.1 µM (inactive); in the assay on MDA-MB-435 it was 20.4 µM (inactive); with MOLT-4 it was 21.1 µM (inactive); in the assay with OVCAR-3 it was 35.7 µM (inactive); in the assay on PC-3, 76.2 µM (inactive). Besides, the GI50 in the assay on SF-295 was > 100 µM (inactive); with SK-MEL-28 it was 18.2 µM (inactive); with SK-MEL-5 it was 15.8 µM (inactive); in the assay on SK-OV-3, > 100 µM (inactive); with SNB-19, > 100 µM (inactive); in the assay with TK-10, 68.7 µM (inactive). In addition, the GI50 in the assay with UACC-257 is 37.2 µM (inactive).

Take `COC(=O)C1(NC(=O)C(CC(=O)OCc2ccccc2)NC(=O)OCc2ccccc2)CCCCCC1` (stereo not drawn): the GI50 in the assay with 786-0 was 38.5 µM (inactive); with ACHN, 34 µM (inactive); in the assay on COLO 205, 21.1 µM (inactive); in the assay on HCT-15 it was 38.1 µM; with K562 it was 23.2 µM (inactive); with M14, > 100 µM (inactive). Besides, the GI50 in the assay with MDA-MB-231 was 32.4 µM (inactive); in the assay on MDA-MB-435 it was 28.8 µM (inactive); in the assay on MDA-N, 24.7 µM (inactive); with MOLT-4 it was 21.4 µM (inactive); with OVCAR-3 it was 26.1 µM (inactive); in the assay on PC-3, 28.6 µM (inactive). The GI50 with SF-295 was 34.4 µM (inactive); in the assay on SK-MEL-28 it was 26.3 µM (inactive); with SK-MEL-5, 15.4 µM (inactive); in the assay with SK-OV-3, 35.4 µM (inactive); in the assay with SNB-19, 51.8 µM (inactive); in the assay with TK-10 it was 67.8 µM (inactive).

With `O=S(=O)(c1ccc(/N=C2\NC(c3ccc(O)cc3)(c3ccccc3O)c3ccccc32)cc1)c1ccc(/N=C2/NC(c3ccc(O)cc3)(c3ccccc3O)c3ccccc32)cc1` (stereo not drawn), the GI50 with 786-0 is 3.02 µM (inactive); with ACHN, 20.2 µM (inactive); with CCRF-CEM, 3.37 µM (inactive); in the assay on COLO 205, 3.56 µM (inactive); in the assay on HCT-15 it was 5.79 µM; in the assay with K562 it was 3.52 µM (inactive). Besides, the GI50 is 3.87 µM (inactive) in the assay with M14; 2.99 µM (inactive) with MDA-N; 4.04 µM (inactive) in the assay on MOLT-4; 4.74 µM (inactive) in the assay on OVCAR-3; 5.05 µM (inactive) with PC-3; 5.28 µM (inactive) in the assay with SF-295. Also, the GI50 in the assay with SK-MEL-5 was 4.46 µM (inactive); in the assay with SK-OV-3, 9.82 µM (inactive); with SNB-19, 5.08 µM (inactive); in the assay on TK-10 it was 13.8 µM (inactive); with UACC-257, 5.02 µM (inactive).

Take `CC(=O)c1c2n(n(-c3ccccc3)c1=O)C(=O)c1nccnc1-2`: the GI50 with 786-0 was > 100 µM (inactive); in the assay with ACHN, > 100 µM (inactive); with COLO 205 it was > 100 µM (inactive); in the assay on HCT-15 it was greater than 100 µM; in the assay on K562 it was > 100 µM (inactive); with M14, > 100 µM (inactive). The GI50 in the assay on MDA-MB-231, in the assay with MDA-MB-435, in the assay with MDA-N, in the assay with MOLT-4, in the assay with OVCAR-3 and with PC-3 was > 100 µM (inactive) in each case. In addition, the GI50 in the assay on SF-295, with SK-MEL-28, in the assay on SK-MEL-5, in the assay on SK-OV-3, with SNB-19 and in the assay on UACC-257 was > 100 µM (inactive) each time.

On to `N/C(=N\c1ccc(Cl)cc1)NS(=O)(=O)c1cccc2nsnc12`, for which the GI50 with 786-0 was 24.7 µM (inactive); with ACHN, 30.3 µM (inactive); in the assay on HCT-15, 30.3 µM; with K562, 36.6 µM (inactive); in the assay on M14 it was 27.9 µM (inactive); in the assay on MDA-MB-231, 17.9 µM (inactive). Moreover, the GI50 in the assay on MDA-N is 23.7 µM (inactive); with MOLT-4, 26.9 µM (inactive); with OVCAR-3, 44.3 µM (inactive); in the assay with PC-3, 17.4 µM (inactive); in the assay on SF-295, 45.5 µM (inactive); with SK-MEL-28, 21 µM (inactive). Also, the GI50 in the assay on SK-MEL-5 was 16.1 µM (inactive); in the assay on SK-OV-3, 74.8 µM (inactive); in the assay with SNB-19, 72.8 µM (inactive); in the assay with TK-10 it was 22.3 µM (inactive); with UACC-257, 13.9 µM (inactive).

Take `CSC(SC)=C1C(=O)N(c2ccccc2)N=C1C`: the GI50 in the assay with 786-0 is 23.2 µM (inactive); in the assay on ACHN, 27.4 µM (inactive); with CCRF-CEM it was 18.5 µM (inactive); in the assay on COLO 205, 19.9 µM (inactive); with HCT-15, 24.1 µM; with K562, 27.1 µM (inactive). Further, the GI50 is 20.6 µM (inactive) with M14; 33.8 µM (inactive) with MDA-MB-231; 34.8 µM (inactive) in the assay with MDA-N; 21.7 µM (inactive) with MOLT-4; 28.1 µM (inactive) with PC-3; 25.9 µM (inactive) with SF-295. The GI50 in the assay with SK-MEL-5 was 10.3 µM (inactive); with SK-OV-3 it was 29.2 µM (inactive); in the assay on SNB-19, 30.9 µM (inactive); in the assay on TK-10, 22.1 µM (inactive); with UACC-257, 27.4 µM (inactive).
